# Laboratory results from US20250281498A1, “FUSED AMINO PYRIMIDINE COMPOUNDS FOR TREATMENT OF SYNUCLEINOPATHIES AND TDP-43 PROTEINOPATHIES” (Ovid Therapeutics Inc., priority 2024, published 2025).
# Experiments:
# [1] = tested on: panel of 144 protein kinases; test: protein kinase panel (SelectScreen; Thermofisher); format: biochemical; conditions: panel incl. protein kinase C isoforms, OSR1, SPAK (STK39), WNK
# Method: Aliquots of HEK-293 cells expressing KCC2 were exposed to 30 μM SSA, heated from 37-55° C. The remaining level of soluble native KCC2 at each temperature was measured by immunoblotting and normalized to the level seen at 37° C. which was given a value of 1. […] This panel included protein kinase C isoforms, OSR1, SPAK (STK39) and with-no-lysine kinases (WNK), all of which phosphorylate KCC2 on multiple residues to indirectly modify its activity (Kahle et al., 2013, supra; Smalley et al., 2020, supra).
# hippocampal neurons = test: whole cell patch-clamp recording of EGABA with imposed Cl− load in hippocampal neurons; format: cell-based, Sprague Dawley; conditions: incubated 1 h, 32 mM Cl− load, 5 min after break-in, controls −47.4±2.3
# Method: Neuronal Cultures. Hippocampal neurons were prepared from Sprague Dawley E18 embryos and plated at 450,000 per dish and maintained at 37° C. in a humidified 5% CO2 incubator for 10-25 days before experimentation (Lee et al., Nat. Neurosci. 14, 736-743 (2011)).
# Neuronal Patch clamp assays. Neuronal cell culture recordings were performed in bath saline at 34° C. For gramicidin perforated-patch experiments, pipettes contained (in mM): 140 KCl and 10 HEPES, pH 7.4 KOH. For whole-cell experiments, pipettes contained (in mM): 115 K-meth-SO4, 30 KCl, 2 Mg-ATP, 4 Na-ATP, 0.4 Na-GTP, and 10 HEPES, pH 7.4 KOH. Bath saline contained the following (in mM): 140 NaCl, 2.5 KCl, 2.5 CaCl2, 2.5 MgCl2, 10 HEPES, and 11 glucose, pH 7.4 NaOH (Kontou et al., 2021, supra). All compound solutions were applied to cells using a three-barreled 700 μm pipe positioned just above the cell (Warner Instruments). […] All voltages from whole-cell experiments were corrected offline using a calculated liquid junction potential value (13.6 mV) in Clampex (Molecular Devices). For gramicidin perforated-patch experiments, intracellular Cl^− values were back-calculated using measured EGABA values and the Nernst equation: […]
# 5 min after break-in, an initial EGABA value was determined and the effects of a subsequent 5 min incubation with VU0463271 was assessed.
# KCC4 = molecular target: T1, KCC4 (Homo sapiens, UniProt Q9Y666); test: TI+ flux assay, HEK-293 cells expressing KCC4; format: cell-based; conditions: read-out: concentration at which effects on KCC4 were seen (EC50 chart FIG. 1G)
# T1 construct: expressed in transfected cells; host or cells: HEK-293
# T1 sequence (Q9Y666 1-1083): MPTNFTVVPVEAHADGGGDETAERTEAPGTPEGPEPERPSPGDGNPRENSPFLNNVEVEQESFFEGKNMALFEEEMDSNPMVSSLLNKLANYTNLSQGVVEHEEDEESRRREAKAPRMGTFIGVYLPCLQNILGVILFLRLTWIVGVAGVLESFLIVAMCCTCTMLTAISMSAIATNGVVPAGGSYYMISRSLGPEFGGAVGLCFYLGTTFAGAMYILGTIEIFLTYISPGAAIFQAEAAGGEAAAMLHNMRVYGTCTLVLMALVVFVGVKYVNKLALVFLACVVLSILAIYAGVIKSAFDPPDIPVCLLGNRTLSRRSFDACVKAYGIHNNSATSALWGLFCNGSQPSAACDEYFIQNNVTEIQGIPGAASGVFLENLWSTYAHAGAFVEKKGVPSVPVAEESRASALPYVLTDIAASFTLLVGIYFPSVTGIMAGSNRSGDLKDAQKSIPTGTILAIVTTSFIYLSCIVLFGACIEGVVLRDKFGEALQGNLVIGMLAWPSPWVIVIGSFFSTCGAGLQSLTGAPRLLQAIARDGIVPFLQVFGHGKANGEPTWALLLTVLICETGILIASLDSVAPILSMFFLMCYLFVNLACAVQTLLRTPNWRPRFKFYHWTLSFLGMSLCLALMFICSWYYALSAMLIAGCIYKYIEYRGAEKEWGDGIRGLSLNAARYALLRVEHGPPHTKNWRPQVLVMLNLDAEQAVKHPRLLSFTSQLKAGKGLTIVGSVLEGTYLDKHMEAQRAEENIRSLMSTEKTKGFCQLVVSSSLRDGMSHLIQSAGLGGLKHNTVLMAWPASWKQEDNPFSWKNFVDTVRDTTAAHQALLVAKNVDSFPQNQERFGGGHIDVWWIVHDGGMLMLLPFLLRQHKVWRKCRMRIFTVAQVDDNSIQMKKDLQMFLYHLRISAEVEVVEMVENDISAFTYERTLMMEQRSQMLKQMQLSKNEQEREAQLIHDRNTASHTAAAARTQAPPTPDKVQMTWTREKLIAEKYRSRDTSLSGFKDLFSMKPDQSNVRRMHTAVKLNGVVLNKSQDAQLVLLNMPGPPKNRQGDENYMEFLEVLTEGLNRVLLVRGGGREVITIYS
# Method: FLIPR TI Flux assay. HEK-293 cells were washed with HBSS, and then incubated with loading buffer containing TI sensitive fluorescent dye (https://www.moleculardevices.com), 20 μM bumetanide 20 μM ouabain and 2.5 mM probenecid for 1 h at room temperature (RT) under control conditions or with drugs in the dark using a FlexStation 3 microplate reader (Molecular Devices) and imaged […] for 30 min. Stimulus buffer was added containing 5 mM K^+/0.5 mM Tl^+ and cells were imaged every 1.5 over a 190 second time course The initial rate Tl^+ uptake (Relative Fluorescence Units (RFU) per second) was determined following addition of the stimulus buffer as outlined previously (Conway et al., 2017, supra) (Lee et al., 2022, supra).
# Several studies have shown that the activity and plasma membrane accumulation of KCC2 is potentiated via phosphorylation of S940, a process mediated by the activity of protein kinase C and protein phosphatase 1 (Lee et al., 2011, supra; Lee et al., J Biol Chem 282, 29777-29784 (2007); Moore et al., Proc. Natl. Acad. Sci. U.S.A. 115, 10166-10171 (2018); Moore et al., Trends Neurosci. 40, 555-571 (2017); Silayeva et al., Proc. Natl. Acad. Sci. U.S.A. 112, 3523-3528 (2015)). […] Compared to KCC2, effects on KCC3, KCC4, and NKCC1 were only seen at concentrations more than 35-fold that of KCC2 (>100 μM) (FIG. 1G).
structure (smiles),measurement,setting,value
"C[C@@H]1CN(c2nc3c(c(Nc4ccc(C5CCCCC5)cc4)n2)COC3)CCO1 [Compound A, (R)—N-(4-cyclohexylphenyl)-2-(2-methylmorpholino)-5,7-dihydrofuro[3,4-d]pyrimidin-4-amine]",activity of a panel of 144 protein kinases,[1],did not modify the activity
same,basal EGABA,hippocampal neurons,-59.3 ± 2.1 mV
same,EC50,KCC4,> 100 µM
